Assay results from patent US20240148709A1, “METHODS OF TREATING EYE PAIN AND EYE DISORDERS” (Aisa Pharma, Inc., priority 2022, published 2024).

Test system: participants with SSc-RP
Experiment: Scleroderma Health Assessment Questionnaire (SHAQ), Phase 2a study Part A
Type: in vivo, human
Conditions: for % change in Pain (SHAQ): mITT
Description: Part A—double-blind, placebo-controlled, parallel-group, dose selection, will assess the safety and efficacy of two doses of cilnidipine (10 mg and 20 mg), alone and in combination with tadalafil. A total of 36 participants will be randomized to one of six prespecified treatment arms. Refer to FIG. 1 for treatment arms in Part A of the study. Dosing last for 12 (±2) days in which participants will self-administer daily doses of assigned treatment in the morning. Each participant will take one capsule and one tablet to blind the active therapy being received.
The standard, validated, patient reported outcome measures tool for SSc patients, the SHAQ, will be collected at the time points specified in the study schedules (FIG. 2 and FIGS. 3A and 3B) to assess the participant's quality of life. The SHAQ includes a Raynaud's VAS that will also be reported separately.
Results: Patients in the study were administered the Scleroderma Health Assessment Questionnaire (SHAQ) at the time of study entry and during clinic visits following the treatment period. The study is a two-part, parallel arm design, prospective, double-blind, randomized study conducted in Australia (Flinders Medical Center). 27 patients were randomized into the first phase of the study, following which a DSMB meeting was held, which reviewed data on the primary study endpoint and key Raynaud's secondary endpoints. Data on the SHAQ was not available for the DSMB to review. The mITT population, in which any data was available post treatment was 24 patients was the analysis population for this first part of the study. The second part (i.e., part B) of the study will randomize 36 patients in a double blind, randomized, prospective, placebo controlled, crossover study. In the first part (i.e., Part A) of the study for which data is presented, patients were randomized into 6 groups, cilnidipine at two doses (10 and 20 mg) alone and in combination with tadalafil 5 mg, tadalafil 5 mg alone, and placebo. […] The DSMB recommended that the study proceed into its double blind prospective cross overpowered second phase and compare cilnidipine 20 mg alone to placebo.

[1] = Pooled Cilnidipine 10 mg or 20 mg (N = 7)
[2] = Pooled Cilnidipine 10 mg or 20 mg (n = 6)
[3] = cilnidipine 10 mg and/or tadalafil 5 mg arms

## COCCOC(=O)C1=C(C)NC(C)=C(C(=O)OC/C=C/c2ccccc2)C1c1cccc([N+](=O)[O-])c1 (stereo not drawn) [Cilnidipine, cilnidipine]
Cilnidipine 20 mg (n = 3)
  % change VAS Raynauds: −49%
  % change in Alternative Disability Index: −42%
  % change in Standard Disability Index: −50%
  % change overall SSc Disease Severity: −63% (i.e., improvement)
  % improvement in Breathing (median): 67% (median)
  % improvement in VAS Digital Ulcers: 35%
  Alternative disability index, % improvement: 42% improvement
  Standard disability Index, % improvement: 50% improvement
  VAS - Breathing problems, % improvement: 75% improvement*
  VAS - Raynaud's, % improvement: 55% improvement
  VAS Overall Disease Severity, % improvement: 63% improvement
  % change in Pain (SHAQ): −53%
Cilnidipine 20 mg (n = 3), baseline 2.17 on a 0-10 VAS
  VAS- PAIN, % improvement: 53% improvement*
[1]
  SHAQ overall disease severity, Change from Baseline, Max: 0.20
  SHAQ overall disease severity, Change from Baseline, Mean (SD): −1.214 (0.7946)
  SHAQ overall disease severity, Change from Baseline, Median: −1.500
  SHAQ overall disease severity, Change from Baseline, Min: −1.90
  SHAQ overall disease severity, Change from Baseline, Q1: −1.800
  SHAQ overall disease severity, Change from Baseline, Q3: −0.400
  SHAQ overall disease severity, In-Clinic Visit (Day 12), Max: 5.20
  SHAQ overall disease severity, In-Clinic Visit (Day 12), Mean (SD): 1.486 (1.7743)
  SHAQ overall disease severity, In-Clinic Visit (Day 12), Median: 1.200
  SHAQ overall disease severity, In-Clinic Visit (Day 12), Min: 0.00
  SHAQ overall disease severity, In-Clinic Visit (Day 12), Q1: 0.200
  SHAQ overall disease severity, In-Clinic Visit (Day 12), Q3: 1.900
[2]
  SHAQ overall disease severity, Percent Change from Baseline, Max: −26.8%
  SHAQ overall disease severity, Percent Change from Baseline, Mean (SD): −59.80 (25.642) %
  SHAQ overall disease severity, Percent Change from Baseline, Median: −55.86%
  SHAQ overall disease severity, Percent Change from Baseline, Min: −100.0%
  SHAQ overall disease severity, Percent Change from Baseline, Q1: −76.19%
  SHAQ overall disease severity, Percent Change from Baseline, Q3: −44.12%
Pooled Cilnidipine (n = 7)
  % change VAS Raynauds: −17%
  % change in Alternative Disability Index: −13%
  % change in Standard Disability Index: −25%
  % change overall SSc Disease Severity: −60% (i.e., improvement)
  % improvement in Breathing (median): 41% (median)
  % improvement in VAS Digital Ulcers: 19%
  % change in Pain (SHAQ): −31%
Pooled cilnidipine
  % from baseline, Intestinal Problems, mean: −32.4%
  % from baseline, Intestinal Problems, median: −44.1%
  % from baseline, VAS Breathing, mean: −8.2%
  % from baseline, VAS Breathing, median: −41.3%
  % from baseline, VAS Finger Ulcers, mean: −17.1%
  % from baseline, VAS Finger Ulcers, median: −50.9%
  % from baseline, VAS Overall Disease Severity, mean: −59.8%
  % from baseline, VAS Overall Disease Severity, median: −55.9%
  % from baseline, VAS Pain, mean: −31.2%
  % from baseline, VAS Pain, median: −45%
  % from baseline, VAS Raynaud's, mean: −18.6%
  % from baseline, VAS Raynaud's, median: −38.7%
  % from baseline, alternative disability, mean: −12.9%
  % from baseline, alternative disability, median: −22.2%
  % from baseline, standard disability, mean: −25%
  % from baseline, standard disability, median: −16.7%
[3]
  SHAQ Finger Ulcers, Change from Baseline, Max: 0.00
  SHAQ Finger Ulcers, Change from Baseline, Mean (SD): −0.425 (0.5058)
  SHAQ Finger Ulcers, Change from Baseline, Median: −0.350
  SHAQ Finger Ulcers, Change from Baseline, Min: −1.00
  SHAQ Finger Ulcers, Change from Baseline, Q1: −0.850
  SHAQ Finger Ulcers, Change from Baseline, Q3: 0.000
  SHAQ Finger Ulcers, In Clinic Visit (Day 12), Max: 1.10
  SHAQ Finger Ulcers, In Clinic Visit (Day 12), Mean (SD): 0.275 (0.5500)
  SHAQ Finger Ulcers, In Clinic Visit (Day 12), Median: 0.000
  SHAQ Finger Ulcers, In Clinic Visit (Day 12), Min: 0.00
  SHAQ Finger Ulcers, In Clinic Visit (Day 12), Q1: 0.000
  SHAQ Finger Ulcers, In Clinic Visit (Day 12), Q3: 0.550
  SHAQ Finger Ulcers, Percent Change from Baseline, Max: −38.9%
  SHAQ Finger Ulcers, Percent Change from Baseline, Mean (SD): −69.44 (43.212) %
  SHAQ Finger Ulcers, Percent Change from Baseline, Median: −69.44%
  SHAQ Finger Ulcers, Percent Change from Baseline, Min: −100.0%
  SHAQ Finger Ulcers, Percent Change from Baseline, Q1: −100.00%
  SHAQ Finger Ulcers, Percent Change from Baseline, Q3: −38.89%
  SHAQ Overall Change in Severity, Change from Baseline, Max: 0.20
  SHAQ Overall Change in Severity, Change from Baseline, Mean (SD): −0.900 (0.9695)
  SHAQ Overall Change in Severity, Change from Baseline, Median: −0.950
  SHAQ Overall Change in Severity, Change from Baseline, Min: −1.90
  SHAQ Overall Change in Severity, Change from Baseline, Q1: −1.700
  SHAQ Overall Change in Severity, Change from Baseline, Q3: −0.100
  SHAQ Overall Change in Severity, In Clinic Visit (Day 12), Max: 5.20
  SHAQ Overall Change in Severity, In Clinic Visit (Day 12), Mean (SD): 1.825 (2.4061)
  SHAQ Overall Change in Severity, In Clinic Visit (Day 12), Median: 1.050
  SHAQ Overall Change in Severity, In Clinic Visit (Day 12), Min: 0.00
  SHAQ Overall Change in Severity, In Clinic Visit (Day 12), Q1: 0.100
  SHAQ Overall Change in Severity, In Clinic Visit (Day 12), Q3: 3.550
